Data taken from publication PMC11357992, “Non-invasive mapping of systemic neutrophil dynamics upon cardiovascular injury” (Nature Cardiovascular Research, 2023).
Values joined by “and” are separate entries in the source; they are usually repeats but may differ in a detail not shown here. Equal values may be shown once. Where no end group is shown, it is not given here. Side-chain parts run from the residue outwards. rhodamine‑labelled PEGylated perfluoro‑15‑crown‑5 ether nanoemulsion = not defined here; carboxyfluorescein = N-terminal fluorescence label (CF)

Assays:
[1] = tested on: human neutrophils; assay: Migration of human neutrophils toward IL-8 (Boyden chamber); format: cell-based; details: 50 µl hNPPFCs, 1 h, 37 °C; 100 ng ml^−1 IL-8
Description: (§1) A total of 1 × 10^6 isolated human neutrophils were incubated with or without 50 µl ^hNPPFCs for 1 h at 37 °C in 1 ml DMEM. After washing with DMEM, 1 × 10^5 of these cells were placed in a Boyden chamber containing 200 µl DMEM. The lower part of the chamber contained 100 ng ml^−1 IL-8 in 1 ml DMEM. After 1 h in an incubator, the flow through was collected, and the number of neutrophils was counted by flow cytometry. Murine neutrophils were isolated from Matrigel–LPS plugs and stained for Ly6G. Afterward, cells were washed twice, and the number of neutrophils was determined by flow cytometry.

[2] = tested on: murine neutrophils; assay: Phagocytosis of FITC-labeled E. coli particles by murine neutrophils after mNPPFC injection; format: in vivo, mouse; details: in the presence of the targeting PFCs
Description: […] per kg BW ^mNPPFCs or saline were injected i.v., followed by 100 µl FITC-labeled Escherichia coli particles (Thermo Fisher) 2 h later. […] Thereafter, FITC labeling was determined by flow cytometry.
Extended Data Fig. 9 Impact of ^mNPPFCs on murine neutrophils. a, Differentially expressed genes (DEGs) identified by bulk RNA sequencing of murine blood neutrophils after intravenous injection of ^mNPPFCs, ^ConPFCs or NaCl (Ctrl) as control. Volcano plots of DEGs for murine neutrophils of animals treated with saline compared to ^mNPPFCs (left), or ^ConPFCs compared to ^mNPPFC (right). […] BF = Bonferroni corrected p-values of the false discovery rate. In total 25655 RNA transcripts were analyzed. b, Cell surface expression of CD11b, CD62L, CD63 on blood derived murine neutrophils after intravenous application of NaCl (Ctrl) or ^mNPPFCs. As a positive control, matrigel doped with 50 µg LPS was subcutaneously implanted into the neck of mice and after 24 h, neutrophils were isolated from the blood and analyzed by flow cytometry. c, Impact of ^mNPPFC incubation on neutrophil migration, phagocytosis and release of reactive oxygen species (ROS). […]

[3] = tested on: infarcted heart; assay: Cardiac 19F MRI signal after MI (in vivo, time course, correlation with LGE); parameters: species or system mouse
Description: For labeling of neutrophils before MI, mice were anesthetized (1.5% isoflurane) and 1 mmol per kg BW PFCs were injected intravenously via the tail vein on 3 consecutive days. Induction of MI was essentially carried out as previously described. For inhibiting the egress of neutrophils from the bone marrow in a subset of experiments, a cocktail of neutralizing antibodies was injected i.p. 1 h before and 4 h after MI (CXCL1, CXCL2, G-CSF, GM-CSF, 50 µg each, Thermo Fisher). To generate neutropenic mice, 48 and 24 h before MI, 500 µg of the Ly6G-depletion antibody (BioXcell, clone 1A8) was injected i.p. in independent experiments.
All experiments were performed with a vertical 9.4 T Bruker AVANCE^III Wide Bore NMR spectrometer (Bruker) driven by ParaVision 5.1 and operating at frequencies of 400.21 MHz for ^1H measurements and 376.54 MHz for ^19F measurements using a Bruker microimaging unit, Micro2.5, with actively shielded gradient sets (1.5 T m^−1). Data were acquired using a 25-mm quadrature ^19F resonator with one channel tunable to both ^1H and ^19F. Mice were anesthetized with 1.5% isoflurane and kept at 37 °C. After acquisition of morphological ^1H images, the resonator was tuned to ^19F, and anatomically matching ^19F images were recorded essentially as described previously.
Images of mouse hearts were acquired in short-axis orientation using a retrospectively triggered fast low-angle shot cine sequence (IntragateFLASH, Bruker) as described previously. Thereafter, hearts were excised, washed and fixed with PFA for 3D high-resolution post-mortem MRI: ^1H FISP, TR = 4 ms, FOV = 1.00 × 1.00 × 1.00 cm³, matrix = 128 × 64 × 128, tAcq 151 min; ^19F RARE, TR = 2,500 ms, FOV = 1.00 × 1.00 × 1.00 cm³, matrix = 32 × 32 × 32, tAcq = 10 h.

[4] = tested on: murine neutrophils; assay: ROS production of murine neutrophils after mNPPFC injection (dihydroethidium, UPLC); format: in vivo, mouse; details: in the presence of the targeting PFCs
Description: […] per kg BW ^mNPPFCs or saline were injected i.v., and, 2 h later, neutrophils were isolated from the bone marrow, and extracellular ROS was measured in the cell supernatant by oxidation of dihydroethidium followed by UPLC analysis.
A total of 5 × 10^6 human neutrophils were incubated in 10 ml DMEM with or without 1 µg ml^−1 peptide or 50 µl ml^−1 emulsion. At distinct time points, cells were pelleted, and 1 ml of the supernatant was immediately frozen at −80 °C. Subsequently, the amount of ROS was determined by chemiluminescence analysis. […] After centrifugation, 80 µl supernatant was used to determine ROS by UPLC measurement (Waters Acquity Bio H-Class with 2475 FLD Detector). To this end, gradients A and B (0.1% trifluoroacetic acid in 1 l water and acetonitrile, respectively) at a flow rate of 0.26 ml min^−1 at 17 °C were used. Dihydroethidium was excited and detected at 480 nm and 580 nm, respectively.
(§2) Extended Data Fig. 9 Impact of ^mNPPFCs on murine neutrophils. a, Differentially expressed genes (DEGs) identified by bulk RNA sequencing of murine blood neutrophils after intravenous injection of ^mNPPFCs, ^ConPFCs or NaCl (Ctrl) as control. […] In total 25655 RNA transcripts were analyzed. b, Cell surface expression of CD11b, CD62L, CD63 on blood derived murine neutrophils after intravenous application of NaCl (Ctrl) or ^mNPPFCs. […]

[5] = tested on: murine neutrophils; assay: Migration of murine neutrophils into Matrigel/LPS plug after mNPPFC injection; format: in vivo, mouse; details: in the presence of the targeting PFCs
Description: […] per kg BW ^mNPPFCs or saline were injected i.v., and, after 1 h, LPS-doped Matrigel was implanted s.c. into the neck of mice. After 2 h, the Matrigel plug was excised, and infiltrated neutrophils were isolated and stained with anti-CD11b and anti-Ly6G antibodies for flow cytometry.
as §1, §2

Row | Substance | migration of human neutrophils toward IL-8 [1] | phagocytosis by murine neutrophils [2] | fluorine signal ([3]; cardiac 19F MRI after MI, paired with infarct size (correlation), panel A raw data, single animals) | cardiac 19F signal, Sham ([3]; in vivo 19F MRI, Sham (substance not given), single animals) | cardiac 19F signal after MI ([3]; in vivo 19F MRI, mice with MI, panel C raw data, single animals) | cardiac 19F signal, 1h ([3]; time course after MI, 1h, panel B raw data, single animals #1-#6) | cardiac 19F signal, 3h ([3]; time course after MI, 3h, single animals) | cardiac 19F signal, 6h ([3]; time course after MI, 6h, single animals) | cardiac 19F signal, 24h ([3]; time course after MI, 24h, single animals) | cardiac 19F signal, 48h ([3]; time course after MI, 48h, single animals) | cardiac 19F signal, 72h ([3]; time course after MI, 72h, single animals) | ROS production of murine neutrophils [4] | migration of murine neutrophils [5]
1 | hNPPFCs: PEGylated rhodamine-labeled perfluorocarbon nanoemulsion coupled with human neutrophil-specific peptide hNP (carboxyfluorescein-DLVTSKLQVGGGC; also: C-terminal Cys coupled via maleimide-PEG2000-DSPE to rhodamine-labelled perfluorocarbon nanoemulsion) | no evidence for any changes in their chemotactic properties | – | – | – | – | – | – | – | – | – | – | – | –
2 | mNPPFCs: PEGylated rhodamine-labeled perfluoro-15-crown-5 ether nanoemulsion (maleimide PFCs) coupled with murine neutrophil-specific peptide mNP (carboxyfluorescein-DFYKPMPNLRITGGGC([maleimide‑PEG2000‑DSPE-rhodamine‑labelled PEGylated perfluoro‑15‑crown‑5 ether nanoemulsion]); reading uncertain; also: printed as DFYKPMPNLRIT-GGG-C) | – | unaltered | 1143260.00 and 189700.00 and 404383.00 and 657147.00 and 1197310.00 and 718148.00 | 79451 and 78829 and 92374 and 48275 and 58581 and 66158 | 325890 and 570535 and 698329 and 580045 and 224755 and 325233 and 312147 and 344837 and 567674 and 107303 and 326458 and 189700 and 404383 and 657147 and 718148 | 153579.00 and 401063.98 and 321133.97 and 254881.37 and 314977.20 and 322448.95 | 445129.00 and 539772.19 and 408267.20 and 394516.08 and 617532.55 | 643519.00 and 466668.95 and 433563.34 and 788134.14 and 582620.85 | 1143260.00 and 608391.86 and 841920.06 and 1092840.00 and 1200290.00 and 913025.41 | 563325.00 and 546371.63 and 835937.39 and 937854.02 and 656412.62 | 589807.00 and 491276.01 and 1221090.00 and 1312800.00 and 804982.61 | unaltered | unaltered
